Legend:
[1] = Mouse rotarod assay (minimal muscular or neurological impairment); format: in vivo; conditions: mouse, in vivo, mice
Protocol: To assess a compound's undesirable side effects (toxicity), animals were monitored for overt signs of impaired neurological or muscular function. In mice, the rotarod procedure (Dunham and Miya, J. Am. Pharmacol. Assoc. 46:208-209 (1957)) is used to disclose minimal muscular or neurological impairment (MMI). When a mouse is placed on a rod that rotates at a speed of 6 rpm, the animal can maintain its equilibrium for long periods of time. The animal is considered toxic if it falls off this rotating rod three times during a 1-min period.

[2] = system: Lamina I/II spinal cord neurons; experiment: Lamina assay: current-clamp recordings on lamina I/II spinal cord neurons; format: cell-based, rat; conditions: Lamina I and II; for % Spike Change (Mean; % change from control): tonic firing neurons, current-clamp
Source text: Male Wistar rats (P6 to P9 for voltage-clamp and P15 to P18 for current-clamp recordings) were anaesthetized through intraperitoneal injection of Inactin (Sigma). The spinal cord was then rapidly dissected out and placed in an ice-cold solution protective sucrose solution containing (in mM): 50 sucrose, 92 NaCl, 15 D-Glucose, 26 NaHCO3, 5 KCl, 1.25 NaH2PO4, 0.5 CaCl2, 7 MgSO4, 1 kynurenic acid, and bubbled with 5% CO2/95% O2. The meninges, dura, and dorsal and ventral roots were then removed from the lumbar region of the spinal cord under a dissecting microscope. The “cleaned” lumbar region of the spinal cord was glued to the vibratome stage and immediately immersed in ice cold, bubbled, sucrose solution. For current-clamp recordings, 300 to 350 μm parasagittal slices were cut to preserve the dendritic arbour of lamina I neurons, while 350 to 400 μm transverse slices were prepared for voltage-clamped […] channel recordings. Slices were allowed to recover for 1 hour at 35° C. in Ringer solution containing (in mM): 125 NaCl, 20 D-Glucose, 26 NaHCO3, 3 KCl, 1.25 NaH2PO4, 2 CaCl2, 1 MgCl2, 1 kynurenic acid, 0.1 picrotoxin, bubbled with 5% CO2/95% O2. The slice recovery chamber was then returned to room temperature (20 to 22° C.) and all recordings were performed at this temperature.
Neurons were visualized using IR-DIC optics (Zeiss Axioskop 2 FS plus, Gottingen, Germany), and neurons from lamina I and the outer layer of lamina II were selected based on their location relative to the substantia gelatinosa layer. Neurons were patch-clamped using borosilicate glass patch pipettes with resistances of 3 to 6 MΩ. Current-clamp recordings of lamina I/II neurons in the intact slice, the external recording solution was the above Ringer solution, while the internal patch pipette solution contained (in mM): 140 KGluconate, 4 NaCl, 10 HEPES, 1 EGTA, 0.5 MgCl2, 4 MgATP, 0.5 Na2GTP, adjusted to pH 7.2 with 5 M KOH and to 290 mOsm with D-Mannitol (if necessary). Only tonic firing neurons were selected for current-clamp experiments, while phasic, delayed onset and single spike neurons were discarded (22). Recordings were digitized at 50 kHz and low-pass filtered at 2.4 kHz.

[3] = biological target: T1, CaV3.2 T-type Ca2+ channels expressed in HEK cells (Homo sapiens, UniProt O95180); experiment: CaV3.2 voltage-clamp electrophysiological assay (fast and slow inactivation); format: cell-based
T1 construct: expressed in transfected cells; host or cells: HEK cells
T1 sequence (O95180 whole entry): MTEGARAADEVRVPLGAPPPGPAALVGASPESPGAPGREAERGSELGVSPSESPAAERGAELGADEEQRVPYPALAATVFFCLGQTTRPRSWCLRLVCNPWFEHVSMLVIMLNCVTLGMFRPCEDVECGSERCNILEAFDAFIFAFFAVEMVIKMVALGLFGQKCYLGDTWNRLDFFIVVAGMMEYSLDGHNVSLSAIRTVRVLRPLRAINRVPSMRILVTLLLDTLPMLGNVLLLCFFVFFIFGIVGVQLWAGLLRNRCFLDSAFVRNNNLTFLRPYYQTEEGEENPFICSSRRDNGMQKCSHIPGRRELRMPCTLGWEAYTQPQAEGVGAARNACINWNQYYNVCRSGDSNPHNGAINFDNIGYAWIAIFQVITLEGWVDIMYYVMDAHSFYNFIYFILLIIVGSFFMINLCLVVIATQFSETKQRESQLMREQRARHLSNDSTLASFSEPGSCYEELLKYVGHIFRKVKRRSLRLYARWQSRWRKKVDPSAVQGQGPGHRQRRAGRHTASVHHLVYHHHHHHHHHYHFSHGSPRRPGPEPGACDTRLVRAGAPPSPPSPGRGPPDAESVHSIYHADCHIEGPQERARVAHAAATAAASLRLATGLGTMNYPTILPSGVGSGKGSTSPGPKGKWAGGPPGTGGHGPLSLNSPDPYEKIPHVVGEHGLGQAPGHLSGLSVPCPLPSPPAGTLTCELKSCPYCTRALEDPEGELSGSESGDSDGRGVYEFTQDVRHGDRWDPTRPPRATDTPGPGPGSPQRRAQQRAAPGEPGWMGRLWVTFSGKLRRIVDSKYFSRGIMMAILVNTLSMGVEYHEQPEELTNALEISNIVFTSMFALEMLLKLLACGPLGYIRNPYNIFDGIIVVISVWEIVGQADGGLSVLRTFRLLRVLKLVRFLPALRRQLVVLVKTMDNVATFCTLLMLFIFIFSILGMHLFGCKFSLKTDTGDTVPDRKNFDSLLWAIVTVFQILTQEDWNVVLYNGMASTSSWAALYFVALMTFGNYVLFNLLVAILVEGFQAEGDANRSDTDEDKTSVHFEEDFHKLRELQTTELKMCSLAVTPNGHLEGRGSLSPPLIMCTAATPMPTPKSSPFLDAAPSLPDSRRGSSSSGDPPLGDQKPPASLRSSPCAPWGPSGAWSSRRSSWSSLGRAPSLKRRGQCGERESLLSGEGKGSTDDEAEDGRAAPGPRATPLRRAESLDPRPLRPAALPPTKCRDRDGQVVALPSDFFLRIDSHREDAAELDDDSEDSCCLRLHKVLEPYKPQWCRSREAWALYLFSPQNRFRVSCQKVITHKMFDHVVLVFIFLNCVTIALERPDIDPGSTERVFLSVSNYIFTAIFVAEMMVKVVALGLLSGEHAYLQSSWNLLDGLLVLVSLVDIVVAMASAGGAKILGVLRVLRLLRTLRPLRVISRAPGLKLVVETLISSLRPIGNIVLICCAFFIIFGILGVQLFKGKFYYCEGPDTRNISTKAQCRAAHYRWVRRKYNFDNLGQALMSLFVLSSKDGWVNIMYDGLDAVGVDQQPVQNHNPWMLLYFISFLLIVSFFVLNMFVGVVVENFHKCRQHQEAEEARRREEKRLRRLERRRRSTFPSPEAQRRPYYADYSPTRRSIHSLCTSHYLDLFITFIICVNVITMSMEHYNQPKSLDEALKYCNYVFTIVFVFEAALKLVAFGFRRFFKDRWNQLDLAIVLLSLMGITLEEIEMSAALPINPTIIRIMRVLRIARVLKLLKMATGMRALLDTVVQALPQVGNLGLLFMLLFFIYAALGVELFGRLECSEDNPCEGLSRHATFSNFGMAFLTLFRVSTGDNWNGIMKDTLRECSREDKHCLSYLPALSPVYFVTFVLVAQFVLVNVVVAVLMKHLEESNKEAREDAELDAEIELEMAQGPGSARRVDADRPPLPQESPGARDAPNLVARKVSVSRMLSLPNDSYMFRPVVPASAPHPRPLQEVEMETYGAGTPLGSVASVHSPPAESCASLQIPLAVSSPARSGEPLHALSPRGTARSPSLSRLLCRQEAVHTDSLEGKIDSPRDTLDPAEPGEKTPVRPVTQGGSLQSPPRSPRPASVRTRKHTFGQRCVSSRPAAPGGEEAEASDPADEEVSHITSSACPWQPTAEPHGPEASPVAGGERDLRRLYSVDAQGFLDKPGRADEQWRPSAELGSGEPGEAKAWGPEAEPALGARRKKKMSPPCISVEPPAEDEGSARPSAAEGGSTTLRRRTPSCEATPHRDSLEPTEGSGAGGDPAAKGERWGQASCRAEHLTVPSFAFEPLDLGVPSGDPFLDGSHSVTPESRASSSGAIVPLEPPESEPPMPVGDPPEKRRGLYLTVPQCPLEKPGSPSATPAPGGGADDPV
Source text: Prior to recording currents from CaV3.2 T-type Ca^2+ channels expressed in HEK cells, the culture media was replaced with extracellular solution (ECS) containing (in mM): 142 CsCl, 10 D-glucose, 2 CaCl2, 1 MgCl2, 10 HEPES, pH adjusted to 7.4 with CsOH. Borosilicate glass patch pipettes, pulled on a P-97 micropipette puller (Sutter Instruments, Novato, Calif.) with typical resistances of 2-4 MW, were backfilled with intracellular solution containing (in mM): 126.5 Cs-methanesulphonate, 2 MgCl2, 10 HEPES, 11 EGTA, 2 Na-ATP, pH adjusted to 7.3 CsOH. […] were recorded in the whole-cell configuration at room temperature (˜21° C.) using an Axopatch 200B (Molecular Devices, Sunnyvale, Calif.) patch-clamp amplifier. Recordings were low-pass filtered at 1 kHz (−3 dB 4-pole Bessel filter), digitized at 2 kHz with a Digidata 1322A interface (Molecular Devices), and acquired using pClamp 9.2 (Molecular Devices). No leak subtraction was used. Test compounds, prepared as 30 mM stock solutions in DMSO and diluted in extracellular buffer, were applied through a gravity driven multi-barrelled array of capillaries (24 gauge) connected to reservoirs controlled by solenoid valves. The effects of compounds on CaV3.2 slow and fast inactivation were evaluated using four different voltage protocols. The voltage dependence of fast and slow channel inactivation was examined using a two pulse protocol. Data were analyzed and fitted using OriginPro v.7.5 (OriginLab, Northampton, Mass.) software.

Compound | TD50 [1] [mg/kg] | % Spike Change (Mean; % change from control) [2] [%] | EC50 ([2]; Rattus norvegicus, Neuron) [nM] | Fraction of current recovered at 5.1 s interval ([3]; 5.1 s interval) | Fraction current remaining at −40 mV ([3]; at −40 mV) | V1/2 slow inactivation ([3]; voltage-dependence of half inactivation, HEK cells, whole-cell)
O=C(CN1CCNCC1=O)Nc1cc(C(F)(F)F)cc(C(F)(F)F)c1 [Compound 1, N-(3,5-bis(trifluoromethyl)phenyl)-2-(2-oxopiperazin-1-yl)acetamide] | 300 | −47.3 | 482 | – | – | –
O=C1CN(CC(=O)Nc2cc(C(F)(F)F)cc(C(F)(F)F)c2)CCN1 [Compound 9, N-(3,5-bis(trifluoromethyl)phenyl)-2-(3-oxopiperazin-1-yl)acetamide] | – | −35.5 | – | *0.80 | **0.32 | **−83 mV

From patent US20120220603A1, “SUBSTITUTED HETEROCYCLIC DERIVATIVES FOR THE TREATMENT OF PAIN AND EPILEPSY” (ZALICUS PHARMACEUTICALS LTD., priority 2009, published 2012)
